Measured values from US20120232062A1, “AZAINDAZOLES TO TREAT FLAVIVIRIDAE VIRUS INFECTION” (EIGER BIOPHARMACEUTICALS, INC., priority 2009, published 2012).
Read-outs that look alike come from different tables or passages of the source.

How the values were obtained:
[1] = Liver microsome stability, human; format: in vitro ADME; settings: for liver stability predicted by in vitro PK profiles: human vs rat liver, in words
Excerpt: (§1) Metabolic stability assays are designed to measure the stability of a test compound in a variety of assay matrices from human and animal species. From a metabolism perspective, a drug would be relatively stable, have a small first-pass effect, and maintain an effective concentration in blood for a reasonable period of time. A microsomal preparation from the liver contains all CYP isozymes and other membrane-bound drug metabolizing enzymes which are responsible for the metabolism for the majority of drugs in humans. Metabolic stability in liver microsomes can determine half-life (T1/2) and intrinsic clearance (Clint). The determination of Clint may be useful to determine whether metabolism is the major elimination pathway when it is compared to total body clearance in vivo. For high metabolic stability in liver microsomes: […] Human, Sprague Dawley rat, and CD-1 mouse liver microsome samples were purchased from BD Gentest. An in vitro metabolic stability assay suitable for use in predicting first pass metabolism of the compounds useful in the methods of the invention is described in this example. […] 6 mM NADPH in 0.1 M K-phosphate buffer is prepared by dissolving 25.1 mg of NADPH tetrasodium salt in 5 mL of K-phosphate buffer. […] The plate is pre-incubated at 37° C. for 10 minutes. 15 μL of NADPH stock solution (6 mM) is added to the wells designated for Time 60 and timed. At 30 min, 15 min, and 5 min, 15 μL of NADPH stock solution (6 mM) is added to the wells. At the end of incubation, 135 μL of ACN containing IS is added to all the wells (60 min, 30 min, 15 min, 5 min and 0 min). Then 15 μL of NADPH stock solution (6 mM) is added to the wells designated as Time 0.

HCV genotype 1b = assay: HCV 1b replicon luciferase assay; format: cell-based
How it was run: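 Luminescence (Steady-Glo) served as the replication read-out after 48 h compound exposure of 1b replicon-luciferase Huh7 cells seeded at 10k/well. Dosing used 5-fold serial dilutions, 10 concentrations, top 25 μM final, 0.1% DMSO, duplicates.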

[2] = Liver microsome stability, mouse; format: in vitro ADME, CD-1 mouse
Excerpt: as §1

[3] = Hepatitis C virus, read-out: 1b replicon EC50, Tables 4, 5 and text of the rat PK section
[4] = read-out: 1b replicon EC50, Tables 4, 5 and the rat PK section
[5] = Hepatitis C virus, Huh-7, 48 h, Table 1, Huh7 HCV 1b replicon, luciferase reporter, 48 hours, read-out: 1b EC50

Compound	human liver microsome (HLM, % parent remaining) ([1]; after 15 min) [% parent remaining]	human liver microsome (HLM, % parent remaining) ([1]; after 30 min) [% parent remaining]	human liver microsome (HLM, % parent remaining) ([1]; after 60 min) [% parent remaining]	liver stability predicted by in vitro PK profiles [1]	EC50 (HCV genotype 1b; [3]) [nM]	EC50 (HCV genotype 1b; [4]) [nM]	mouse liver microsome (MLM), % parent remaining ([2]; after 15 min) [% parent remaining]	mouse liver microsome (MLM), % parent remaining ([2]; after 30 min) [% parent remaining]	mouse liver microsome (MLM), % parent remaining ([2]; after 60 min) [% parent remaining]	EC50 (HCV genotype 1b; [5]) [nM]
Cn1nc(C(=O)NC2CCN(CCN3CCCCC3)CC2)c2ccc(N3CCCCCC3)nc21 [EBP1047]	78	62	34	higher stability in human liver vs rat liver	500 to 2000	500	56	29	12	
CCN1CCC(NC(=O)c2nn(C)c3nc(N4CCCCCC4)ccc23)CC1 [EBP1595]	73	46	14	higher stability in human liver vs rat liver	500 to 2000	1000	67	50	17	
Cn1nc(C(=O)NC2CCN(CCN3CCCC3)CC2)c2ccc(N3CCCCCC3)nc21 [EBP1597]	81	74	57	higher stability in human liver vs rat liver	500 to 2000	900	67	32	14	
CC(C)N1CCC(NC(=O)c2nn(C)c3nc(N4CCCCCC4)ccc23)CC1 [EBP1604]	71	63	28	higher stability in human liver vs rat liver		2200	57	40	14	
Cn1nc(C(=O)NC2CCNCC2)c2ccc(N3CCCCCC3)nc21.O=C(O)C(F)(F)F.O=C(O)C(F)(F)F [compound 697]	96	109	108				85	74	44	670
CCC(CC)Oc1ccc2c(C(=O)NC3CCNCC3)n[nH]c2n1 [compound 726]	86	81	65				99	96	86	1200
Clc1ccc(Cn2nc(COCCCN3CCCCC3)c3ccc(N4CCCCCC4)nc32)cc1 [compound 749]										2000
CCC(CC)Oc1ccc2c(COCC3CCCNC3)nn(Cc3ccc(Cl)cc3)c2n1.O=C(O)C(F)(F)F (centres unmarked) [compound 755]										3200
O=C(NC1CCNCC1)c1nn(C(=O)C2CCCCC2)c2nc(N3CCCCCC3)ccc12.O=C(O)C(F)(F)F.O=C(O)C(F)(F)F.O=C(O)C(F)(F)F [compound 989]										2600
Cn1nc(C(=O)NC2CCN(CCN3CCCCC3)CC2)c2ccc(N3CCCCCC3)nc21 [compound 1047]	78	62	34				56	29	12	520
Cn1nc(C(=O)NC2CCN(CC3CCCCC3)CC2)c2ccc(N3CCCCCCC3)nc21 [compound 1062]										356
Cn1nc(C(=O)NC2CCN(CC(F)F)CC2)c2ccc(N3CCCCCC3)nc21 [compound 1110]	8	0.4	0.4				15	1	0.4	1800
Cn1nc(CCCN2CCCC2)c2ccc(N3CCCCCCC3)nc21 [compound 1171]	67	44	23				22	3	1	1600
Cn1nc(CCCN2CCCCC2CO)c2ccc(N3CCCCCCC3)nc21 (centres unmarked) [compound 1456]	28	6	0.7				1.7	0.9	0.3	1500
CCN1CCC(NC(=O)c2nn(C)c3nc(N4CCCCCC4)ccc23)CC1 [compound 1595]	73	45	14				67	50	17	740
Cn1nc(C(=O)NC2CCN(CCN3CCCC3)CC2)c2ccc(N3CCCCCC3)nc21 [compound 1597]	81	74	58				67	32	14	770
